Assay results: ChEMBL document CHEMBL1147649, “Design and synthesis of potent beta-secretase (BACE1) inhibitors with P1' carboxylic acid bioisosteres” (Bioorg Med Chem Lett, 2006)
pIC50: −log10 of the molar value.

Legend:
Beta-secretase 1 [1] = biological target: T1, Beta-secretase 1 (Homo sapiens, UniProt P56817); assay: Inhibition of BACE1 at 2 uM
Beta-secretase 1 [2] = biological target: T1, Beta-secretase 1; assay: Inhibition of BACE1 at 0.2 uM
Beta-secretase 1 [3] = biological target: T1, Beta-secretase 1; assay: Inhibition of BACE1

T1 sequence (P56817 whole entry): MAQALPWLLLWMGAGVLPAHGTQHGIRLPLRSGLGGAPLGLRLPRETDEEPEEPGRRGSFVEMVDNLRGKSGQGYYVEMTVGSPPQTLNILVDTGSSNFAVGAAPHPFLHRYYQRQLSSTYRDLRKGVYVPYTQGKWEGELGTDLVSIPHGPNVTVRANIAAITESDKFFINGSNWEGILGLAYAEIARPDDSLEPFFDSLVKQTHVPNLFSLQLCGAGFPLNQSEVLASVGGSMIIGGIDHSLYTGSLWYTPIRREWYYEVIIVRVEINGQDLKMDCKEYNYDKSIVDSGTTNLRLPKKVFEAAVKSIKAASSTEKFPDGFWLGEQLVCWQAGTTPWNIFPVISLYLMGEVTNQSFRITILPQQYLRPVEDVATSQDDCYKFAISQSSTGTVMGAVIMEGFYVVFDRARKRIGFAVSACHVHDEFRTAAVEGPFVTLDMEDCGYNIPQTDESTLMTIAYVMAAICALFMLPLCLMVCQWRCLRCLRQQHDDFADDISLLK

| SMILES | inhibition (Beta-secretase 1 [1]) [%] | inhibition (Beta-secretase 1 [2]) [%] | pIC50 (Beta-secretase 1 [3]) |
| --- | --- | --- | --- |
| CC(C)C[C@H](NC(=O)[C@@H](NC(=O)[C@@H](N)CCC(=O)O)C(C)C)C(=O)N[C@@H](Cc1ccccc1)[C@@H](O)C(=O)Nc1cccc(-c2n[nH]c(=S)n2C)c1 | 74.2 |  |  |
| CC(C)C[C@H](NC(=O)[C@@H](NC(=O)[C@@H](N)CNC(=O)c1nnn[nH]1)C(C)C)C(=O)N[C@@H](Cc1ccccc1)[C@@H](O)C(=O)Nc1cccc(-c2nc(=S)o[nH]2)c1 |  |  | 8.19 |
| CC(C)C[C@H](NC(=O)[C@@H](NC(=O)[C@@H](N)CNC(=O)c1nn[nH]n1)C(C)C)C(=O)N[C@@H](Cc1ccccc1)[C@@H](O)C(=O)Nc1cc(-c2nn[nH]n2)cc(-c2nn[nH]n2)c1 | 100 | 100 |  |
| CC(C)C[C@H](NC(=O)[C@@H](NC(=O)[C@@H](N)CCC(=O)O)C(C)C)C(=O)N[C@@H](Cc1ccccc1)[C@@H](O)C(=O)Nc1cc(-c2nn[nH]n2)cc(-c2nn[nH]n2)c1 | 99.7 | 94 | 8.19 |
| CC(C)C[C@H](NC(=O)[C@@H](NC(=O)[C@@H](N)CCC(=O)O)C(C)C)C(=O)N[C@@H](Cc1ccccc1)[C@@H](O)C(=O)Nc1cccc(C(=O)O)c1 |  | 44.4 |  |
| CC(C)C[C@H](NC(=O)[C@@H](NC(=O)[C@@H](N)CCC(=O)O)C(C)C)C(=O)N[C@@H](Cc1ccccc1)[C@@H](O)C(=O)Nc1cccc(-c2nsc(=O)[nH]2)c1 | 91.9 | 63.2 |  |
| CC(C)C[C@H](NC(=O)[C@@H](NC(=O)[C@@H](N)CNC(=O)c1nn[nH]n1)C(C)C)C(=O)N[C@@H](Cc1ccccc1)[C@@H](O)C(=O)Nc1cccc(C(N)=O)c1 | 97.3 | 78.1 |  |
| CC(C)C[C@H](NC(=O)[C@@H](NC(=O)[C@@H](N)CNC(=O)c1nnn[nH]1)C(C)C)C(=O)N[C@@H](Cc1ccccc1)[C@@H](O)C(=O)Nc1cccc(-c2nnn[nH]2)c1 |  |  | 8.32 |
| CC(C)C[C@H](NC(=O)[C@@H](NC(=O)[C@@H](N)CNC(=O)c1nnn[nH]1)C(C)C)C(=O)N[C@@H](Cc1ccccc1)[C@@H](O)C(=O)Nc1cc(-c2nnn[nH]2)cc(-c2nnn[nH]2)c1 |  |  | 8.92 |
| CC(C)C[C@H](NC(=O)[C@@H](NC(=O)[C@@H](N)CCC(=O)O)C(C)C)C(=O)N[C@@H](Cc1ccccc1)[C@@H](O)C(=O)Nc1cccc(C(N)=O)c1 | 62.1 |  |  |
| CC(C)C[C@H](NC(=O)[C@@H](NC(=O)[C@@H](N)CNC(=O)c1nn[nH]n1)C(C)C)C(=O)N[C@@H](Cc1ccccc1)[C@@H](O)C(=O)Nc1cccc(-c2noc(O)n2)c1 | 100 | 94.2 | 8.18 |
| CC(C)C[C@H](NC(=O)[C@@H](NC(=O)[C@@H](N)CCC(=O)O)C(C)C)C(=O)N[C@@H](Cc1ccccc1)[C@@H](O)C(=O)Nc1cccc(-c2noc(=O)[nH]2)c1 | 94.4 | 66.3 |  |

Further lines, results first:

| inhibition (Beta-secretase 1 [1]) [%] | inhibition (Beta-secretase 1 [2]) [%] | pIC50 (Beta-secretase 1 [3]) | SMILES |
| --- | --- | --- | --- |
| 29.2 |  |  | CC(C)C[C@H](NC(=O)[C@@H](NC(=O)[C@@H](N)CCC(=O)O)C(C)C)C(=O)N[C@@H](Cc1ccccc1)[C@@H](O)C(=O)Nc1cccc(C(=N)N)c1 |
| 99.8 | 97.2 |  | CC(C)C[C@H](NC(=O)[C@@H](NC(=O)[C@@H](N)CNC(=O)c1nn[nH]n1)C(C)C)C(=O)N[C@@H](Cc1ccccc1)[C@@H](O)C(=O)Nc1cccc(-c2noc(S)n2)c1 |
| 92.2 | 73.7 |  | CC(C)C[C@H](NC(=O)[C@@H](NC(=O)[C@@H](N)CCC(=O)O)C(C)C)C(=O)N[C@@H](Cc1ccccc1)[C@@H](O)C(=O)Nc1cccc(-c2nn[nH]n2)c1 |
| 94.5 | 68.4 |  | CC(C)C[C@H](NC(=O)[C@@H](NC(=O)[C@@H](N)CCC(=O)O)C(C)C)C(=O)N[C@@H](Cc1ccccc1)[C@@H](O)C(=O)Nc1cccc(-c2noc(=S)[nH]2)c1 |
| 92 | 72.3 |  | CC(C)C[C@H](NC(=O)[C@@H](NC(=O)[C@@H](N)CCC(=O)O)C(C)C)C(=O)N[C@@H](Cc1ccccc1)[C@@H](O)C(=O)Nc1cccc(-c2n[nH]c(=S)o2)c1 |
| 98.3 | 84.3 |  | CC(C)C[C@H](NC(=O)[C@@H](NC(=O)[C@@H](N)CCC(=O)O)C(C)C)C(=O)N[C@@H](Cc1ccccc1)[C@@H](O)C(=O)Nc1cc(C(=O)O)cc(C(=O)O)c1 |
